The source of these data is US8835429B2, “Pyrimidine compounds, their use as mTOR kinase and Pl3 kinase inhibitors, and their syntheses” (Wyeth LLC, priority 2009, dated 2014).

Read-outs that look alike come from different tables or passages of the source. Some results are limits rather than exact numbers.

One assay has as its system LNCap. Put plainly: In vitro cell growth assay (MTS), LNCap. The format is cell-based. As to conditions: human prostate line, three days after drug treatment. The method, then:
(§1) The cell lines used were human prostate lines LNCap and PC3MM2, human breast lines MDA468 and MCF7, human renal line HTB44 (A498), human colon line HCT116, and human ovarian line OVCAR3. Cells were plated in 96-well culture plates. One day following plating, the inhibitors were added to cells. Three days after drug treatment, viable cell densities were determined by metabolic conversion (by viable cells) of the dye MTS, a well-established cell proliferation assay. The assays were performed using an assay kit purchased from Promega Corp. (Madison, Wis.) following the protocol supplied with the kit. The MTS assay results were read in a 96-well plate reader by measuring absorbance at 490 nm. The effect of each treatment was calculated as percent of control growth relative to the vehicle-treated cells grown in the same culture plate.

The target of the next assay is mTOR (Homo sapiens, UniProt P42345). Nature of the assay: mTOR enzyme assay (DELFIA, purified FLAG-TOR, His6-S6K substrate). The format is biochemical. The arrangement: FLAG. To be noted: 100 μM ATP, 2 hours.
The next assay concerns MDA468. Put plainly: In vitro cell growth assay (MTS), MDA468. The format is cell-based. To be noted: human breast line MDA468, three days after drug treatment, read-out: MDA IC50. The method, then: as §1
A further assay concerns the target PI3K-alpha (Homo sapiens, UniProt P42336). Nature of the assay: PI3K-alpha fluorescence polarization assay. Type of assay: biochemical. As to conditions: 20 μM PIP2, 25 μM ATP; read-out: PI3Kα IC50. The method, then:
The reaction buffer was 20 mM HEPES, pH 7.5, 2 mM MgCl2, 0.05% CHAPS; and 0.01% βME (added fresh). The stop/detection buffer was 100 mM HEPES, pH 7.5, 4 mM EDTA, 0.05% CHAPS; ATP 20 mM in water; PIP2 (diC8, Echelon, Salt Lake City Utah cat #P-4508) 1 mM in water (MW=856.5). The GST-GRP was 1.75 mg/mL or 1.4 mg/mL in 10% glycerol. The red detector (TAMRA) was 2.5 μM. Nunc 384-well black polypropylene fluorescent plates were used for PI3K assays.
The assay is run by placing 5 μL of diluted enzyme per well, then 5 μL of diluted compound (or 9.5 μL enzyme then 0.5 μL compound in DMSO) is added and mixed. Then, 10 μL substrate is added to start the reaction. The samples are incubated 30-60 minutes, then the reaction is stopped by adding 20 μL stop/detector mix. PI3K is diluted with reaction buffer (e.g., 5 μL or 7.5 μL PI3K into 620 μL reaction buffer), and 5 μL of diluted enzyme is used per well. A 5 μL portion of reaction buffer or of drug diluted in buffer (e.g., 4 μL/100 so final DMSO is 1% in reaction) is added to each. Pipetting up and down mixes the samples. Alternatively, the enzyme can be diluted to 1215 μL. In this case 9.8 μL is added per well and 0.2 μL compound is added in DMSO.
To prepare 1 mL of substrate solution, 955 μL reaction buffer, 40 μL PIP2, and 2.5 μL ATP are mixed. 10 μL of substrate is added to each well to start the reaction. […] The stop/detector mix is prepared by mixing 4 μL red detector and 1.6 μL or 2.0 μL GST-GRP with 1 mL stop buffer, which results in 10 nM probe and 70 nM GST-GRP. 20 μL of the stop/detector mix is added to each well to stop the reaction. The plates are read after 30-90 minutes keeping the red probe solutions dark. For the zero time point, stop/detector mix is added to the enzyme just before adding substrate. For an extra control, stop/detector mix is added to buffer (no enzyme) and substrate or to just buffer (no substrate). […] The recommended reaction has 0.06 μL per 20 μL (0.015 μg/20 μL) or 0.01125 μg/15 μL or 0.75 μg/mL.
Plates are read on machines with filters for TAMRA. The units are mP with no enzyme controls reading app 190-220 mP units. Fully active enzyme reduces fluorescence polarization down to 70-100 mP after 30 minutes. An active compound raises the mP values halfway to control or to 120-150 mP units.
In general terms: In fluorescence polarisation assays a small probe gives low polarisation when free and higher when bound to something large.

Sequence of PI3K-alpha (P42336 whole entry, species assumed): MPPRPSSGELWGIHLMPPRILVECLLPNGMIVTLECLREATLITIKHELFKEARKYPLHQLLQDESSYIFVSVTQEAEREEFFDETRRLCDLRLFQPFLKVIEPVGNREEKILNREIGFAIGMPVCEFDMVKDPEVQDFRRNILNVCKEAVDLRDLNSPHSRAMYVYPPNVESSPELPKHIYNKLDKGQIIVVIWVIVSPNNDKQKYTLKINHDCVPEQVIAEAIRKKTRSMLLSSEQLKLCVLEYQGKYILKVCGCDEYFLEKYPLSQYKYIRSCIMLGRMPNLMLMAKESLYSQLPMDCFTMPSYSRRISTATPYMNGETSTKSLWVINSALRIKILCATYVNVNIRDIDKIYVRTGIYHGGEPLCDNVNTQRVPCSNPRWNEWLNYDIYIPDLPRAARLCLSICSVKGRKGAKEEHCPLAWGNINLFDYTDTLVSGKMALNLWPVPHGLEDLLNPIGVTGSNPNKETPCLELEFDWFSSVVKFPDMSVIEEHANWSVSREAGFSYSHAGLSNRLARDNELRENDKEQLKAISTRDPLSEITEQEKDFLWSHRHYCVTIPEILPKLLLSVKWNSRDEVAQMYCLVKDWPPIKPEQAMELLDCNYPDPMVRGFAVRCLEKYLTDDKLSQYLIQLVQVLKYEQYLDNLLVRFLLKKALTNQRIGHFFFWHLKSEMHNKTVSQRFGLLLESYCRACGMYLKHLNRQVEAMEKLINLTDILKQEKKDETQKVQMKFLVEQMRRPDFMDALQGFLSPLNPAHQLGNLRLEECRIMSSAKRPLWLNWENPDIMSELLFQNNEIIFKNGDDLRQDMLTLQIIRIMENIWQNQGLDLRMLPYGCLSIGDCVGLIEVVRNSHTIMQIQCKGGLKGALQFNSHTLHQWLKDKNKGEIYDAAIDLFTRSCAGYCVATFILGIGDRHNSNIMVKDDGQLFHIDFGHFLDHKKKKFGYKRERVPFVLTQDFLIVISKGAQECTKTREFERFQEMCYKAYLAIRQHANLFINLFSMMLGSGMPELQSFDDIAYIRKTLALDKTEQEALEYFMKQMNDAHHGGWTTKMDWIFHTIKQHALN
Sequence of PI3K-alpha (P27986 whole entry partner, species assumed): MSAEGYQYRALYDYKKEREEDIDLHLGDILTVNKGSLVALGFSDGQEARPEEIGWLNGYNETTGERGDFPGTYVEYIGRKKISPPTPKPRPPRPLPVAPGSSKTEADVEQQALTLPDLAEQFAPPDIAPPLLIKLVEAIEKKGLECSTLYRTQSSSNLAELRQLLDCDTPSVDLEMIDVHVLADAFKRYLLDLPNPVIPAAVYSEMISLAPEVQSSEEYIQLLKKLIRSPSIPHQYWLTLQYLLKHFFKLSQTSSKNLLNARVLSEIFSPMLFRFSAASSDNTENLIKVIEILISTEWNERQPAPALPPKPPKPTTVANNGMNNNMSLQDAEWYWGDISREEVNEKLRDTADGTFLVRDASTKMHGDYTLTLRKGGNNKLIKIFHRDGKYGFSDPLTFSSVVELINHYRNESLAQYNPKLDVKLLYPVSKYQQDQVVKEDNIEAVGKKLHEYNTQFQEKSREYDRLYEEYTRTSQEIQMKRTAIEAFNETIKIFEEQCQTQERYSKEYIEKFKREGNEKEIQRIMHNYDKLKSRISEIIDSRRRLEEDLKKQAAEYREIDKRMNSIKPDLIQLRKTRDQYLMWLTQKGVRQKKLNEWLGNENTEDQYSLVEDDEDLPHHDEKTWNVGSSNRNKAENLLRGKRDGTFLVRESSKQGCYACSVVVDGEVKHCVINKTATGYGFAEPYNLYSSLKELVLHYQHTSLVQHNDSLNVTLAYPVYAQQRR
Sequence of mTOR (P42345 1360-2549 limits assumed): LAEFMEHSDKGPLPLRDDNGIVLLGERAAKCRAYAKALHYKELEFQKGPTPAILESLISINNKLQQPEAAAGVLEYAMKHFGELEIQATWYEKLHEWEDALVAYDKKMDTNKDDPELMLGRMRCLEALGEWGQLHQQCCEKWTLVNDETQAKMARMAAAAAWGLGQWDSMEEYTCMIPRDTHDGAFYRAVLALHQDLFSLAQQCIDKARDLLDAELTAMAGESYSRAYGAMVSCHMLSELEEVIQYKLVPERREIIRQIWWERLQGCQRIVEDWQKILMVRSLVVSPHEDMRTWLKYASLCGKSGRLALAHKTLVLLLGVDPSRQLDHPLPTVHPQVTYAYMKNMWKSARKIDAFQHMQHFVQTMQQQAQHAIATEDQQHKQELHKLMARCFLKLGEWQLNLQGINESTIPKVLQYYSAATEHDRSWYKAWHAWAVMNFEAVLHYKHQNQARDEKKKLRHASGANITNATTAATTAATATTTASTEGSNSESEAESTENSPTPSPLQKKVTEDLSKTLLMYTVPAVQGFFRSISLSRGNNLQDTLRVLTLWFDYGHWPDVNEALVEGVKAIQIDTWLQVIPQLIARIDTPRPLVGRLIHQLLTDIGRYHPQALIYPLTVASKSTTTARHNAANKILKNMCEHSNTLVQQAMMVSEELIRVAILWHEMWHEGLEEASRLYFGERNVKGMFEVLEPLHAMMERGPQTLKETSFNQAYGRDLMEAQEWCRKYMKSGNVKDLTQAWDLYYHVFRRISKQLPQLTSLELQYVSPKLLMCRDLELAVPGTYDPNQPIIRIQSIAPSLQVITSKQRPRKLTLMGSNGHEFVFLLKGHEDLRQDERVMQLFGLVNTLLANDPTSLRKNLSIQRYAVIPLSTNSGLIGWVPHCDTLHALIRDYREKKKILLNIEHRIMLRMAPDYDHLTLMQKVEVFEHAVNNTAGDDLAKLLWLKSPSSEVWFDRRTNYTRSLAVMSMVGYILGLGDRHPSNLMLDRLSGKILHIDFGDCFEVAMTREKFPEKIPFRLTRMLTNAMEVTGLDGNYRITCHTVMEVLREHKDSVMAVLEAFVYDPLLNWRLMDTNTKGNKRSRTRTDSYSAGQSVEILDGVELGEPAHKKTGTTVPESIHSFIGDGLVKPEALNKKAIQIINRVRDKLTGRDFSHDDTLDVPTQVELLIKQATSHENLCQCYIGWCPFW

As usually defined, the IC50 is the concentration that inhibits the measured activity by half. Regarding `CNC(=O)Nc1ccc(-c2nc(OC(C)C)cc(N3CC4CCC(C3)O4)n2)cc1` [1-methyl-3-{4-[4-(1-methylethoxy)-6-(8-oxa-3-azabicyclo[3.2.1]oct-3-yl)pyrimidin-2-yl]phenyl}urea], the IC50 in the assay with LNCap (LNCaP, 72 h) is 190 nM; against mTOR, 3 nM; in the assay with MDA468 (72 h), 890 nM; on PI3K-alpha it was 700 nM.

For `CCN(C(=O)Nc1ccncc1)c1ccc(-c2nc(N3CC4CCC(C3)O4)cc(N3CC4CCC(C3)O4)n2)cc1` [1-[4-(4,6-di-8-oxa-3-azabicyclo[3.2.1]oct-3-ylpyrimidin-2-yl)phenyl]-1-ethyl-3-pyridin-4-ylurea], the IC50 with LNCap (LNCaP, 72 h) turned out to be 5800 nM; against mTOR, 200 nM; in the assay with MDA468 (72 h), 20000 nM; on PI3K-alpha, 2260 nM.

Consider `O=C(Nc1ccc(-c2cc(N3CC4CCC(C3)O4)nc(-c3ccc(NC(=O)Nc4cccnc4)cc3)n2)cc1)Nc1cccnc1` [N,N″-{[6-(8-oxa-3-azabicyclo[3.2.1]oct-3-yl)pyrimidine-2,4-diyl]di-4,1-phenylene}bis(3-pyridin-3-ylurea)], for which the IC50 stood at 180 nM in the assay with LNCap (LNCaP, 72 h); 2.8 nM against mTOR; 380 nM with MDA468 (72 h); 101 nM on PI3K-alpha.

Consider `CC(C)Nc1cc(N2CC3CCC(C2)O3)nc(-c2ccc(NC(=O)NC3CC3)cc2)n1` [1-cyclopropyl-3-(4-{4-[(1-methylethyl)amino]-6-(8-oxa-3-azabicyclo[3.2.1]oct-3-yl)pyrimidin-2-yl}phenyl)urea], for which the IC50 in the assay on LNCap (LNCaP, 72 h) was 700 nM; against mTOR it was 8.2 nM; in the assay with MDA468 (72 h), 4200 nM; at PI3K-alpha, 3620 nM.

`O=C(Nc1ccc(CO)cc1)Nc1ccc(-c2nc(-c3ccccc3)cc(N3CC4CCC(C3)O4)n2)cc1` [1-[4-(hydroxymethyl)phenyl]-3-{4-[4-(8-oxa-3-azabicyclo[3.2.1]oct-3-yl)-6-phenylpyrimidin-2-yl]phenyl}urea]: the IC50 with LNCap (LNCaP, 72 h) came to 56 nM; against mTOR it was 2.9 nM; in the assay with MDA468 (72 h) it was 130 nM; on PI3K-alpha, 102 nM.

Turning to `CN(Cc1ccc(NC(=O)Nc2ccc(-c3nc(CS(C)(=O)=O)cc(N4CC5CCC(C4)O5)n3)cc2)cc1)C(=O)OC(C)(C)C` [tert-butyl methyl(4-{[(4-{4-[(methylsulfonyl)methyl]-6-(8-oxa-3-azabicyclo[3.2.1]oct-3-yl)pyrimidin-2-yl}phenyl)carbamoyl]amino}benzyl)carbamate], the IC50 amounted to 210 nM in the assay with LNCap (LNCaP, 72 h); 30 nM against mTOR; 470 nM with MDA468 (72 h); 1930 nM on PI3K-alpha.

`CNC(=O)Nc1ccc(-c2cc(N3CC4CCC(C3)O4)nc(N3CC4CCC(C3)O4)n2)cc1` [1-[4-(2,6-di-8-oxa-3-azabicyclo[3.2.1]oct-3-ylpyrimidin-4-yl)phenyl]-3-methylurea]: the IC50 came to 1600 nM in the assay on LNCap (LNCaP, 72 h); 20.5 nM against mTOR; 4200 nM with MDA468 (72 h); 2490 nM on PI3K-alpha.

Regarding `CC(C)Oc1cc(N2CC3CCC(C2)O3)nc(-c2ccc(NC(=O)Nc3ccncc3)cc2)n1` [1-{4-[4-(1-methylethoxy)-6-(8-oxa-3-azabicyclo[3.2.1]oct-3-yl)pyrimidin-2-yl]phenyl}-3-pyridin-4-ylurea], the IC50 in the assay with LNCap (LNCaP, 72 h) came to 23 nM; against mTOR, 1.35 nM; in the assay on MDA468 (72 h) it was 180 nM; on PI3K-alpha, 264 nM.

For `NC(=O)c1ccc(NC(=O)Nc2ccc(-c3cc(N4CC5CCC(C4)O5)nc(-c4ccc(NC(=O)Nc5ccc(C(N)=O)cc5)cc4)n3)cc2)cc1` [4,4′-{[6-(8-oxa-3-azabicyclo[3.2.1]oct-3-yl)pyrimidine-2,4-diyl]bis(4,1-phenylenecarbamoylimino)}dibenzamide], the IC50 was 41 nM in the assay on LNCap, 0.58 nM on mTOR, 45 nM in the assay with MDA468 and 44.5 nM on PI3K-alpha.

For the compound `CNC(=O)Nc1ccc(-c2nc(-c3ccccc3)cc(N3CC4CCC(C3)O4)n2)cc1` [1-methyl-3-{4-[4-(8-oxa-3-azabicyclo[3.2.1]oct-3-yl)-6-phenylpyrimidin-2-yl]phenyl}urea], the IC50 with LNCap (LNCaP, 72 h) worked out at 510 nM; at mTOR, 22 nM; with MDA468 (72 h), 2000 nM; on PI3K-alpha, 953 nM.

Consider `Nc1ccc(-c2nccc(N3CC4CCC(C3)O4)n2)cc1` [4-[4-(8-oxa-3-azabicyclo[3.2.1]oct-3-yl)pyrimidin-2-yl]aniline], for which the IC50 with LNCap (LNCaP, 72 h) was 41000 nM; against mTOR, 4000 nM; with MDA468 (72 h), no less than 60000 nM; on PI3K-alpha it was 6850 nM.

With `CS(=O)(=O)Cc1cc(N2CC3CCC(C2)O3)nc(-c2ccc(NC(=O)Nc3ccc(N4CCNCC4)cc3)cc2)n1` [1-(4-{4-[(methylsulfonyl)methyl]-6-(8-oxa-3-azabicyclo[3.2.1]oct-3-yl)pyrimidin-2-yl}phenyl)-3-(4-piperazin-1-ylphenyl)urea], the IC50 amounted to 90 nM with LNCap (LNCaP, 72 h); 3 nM against mTOR; 110 nM in the assay on MDA468 (72 h); 242 nM at PI3K-alpha.

Consider `O=C(Nc1ccc(-c2nccc(N3CC4CCC(C3)O4)n2)cc1)OCCO` [2-hydroxyethyl {4-[4-(8-oxa-3-azabicyclo[3.2.1]oct-3-yl)pyrimidin-2-yl]phenyl}carbamate], for which the IC50 with LNCap (LNCaP, 72 h) is 4000 nM; on mTOR it was 165 nM; in the assay on MDA468 (72 h), 24000 nM; at PI3K-alpha, 5070 nM.

Take `CCN(C(=O)Nc1ccc(N2CCN(C)CC2)cc1)c1ccc(-c2nc(N3CC4CCC(C3)O4)cc(N3CC4CCC(C3)O4)n2)cc1` [1-[4-(4,6-di-8-oxa-3-azabicyclo[3.2.1]oct-3-ylpyrimidin-2-yl)phenyl]-1-ethyl-3-[4-(4-methylpiperazin-1-yl)phenyl]urea]: the IC50 in the assay on LNCap (LNCaP, 72 h) is 2800 nM; against mTOR, 195 nM; with MDA468 (72 h), 7000 nM; at PI3K-alpha, 2440 nM.

Consider `CNC(=O)Nc1ccc(-c2nc(N3CC4CCC(C3)O4)cc(N3CC4CCC(C3)O4)n2)cc1` [1-[4-(4,6-di-8-oxa-3-azabicyclo[3.2.1]oct-3-ylpyrimidin-2-yl)phenyl]-3-methylurea], for which the IC50 in the assay on LNCap (LNCaP, 72 h) is 250 nM; against mTOR, 7.05 nM; with MDA468 (72 h), 1000 nM; at PI3K-alpha, 1080 nM.

`CC(C)Oc1cc(N2CC3CCC(C2)O3)nc(-c2ccc(NC(=O)Nc3ccc(N4CCN(C)CC4)cc3)cc2)n1` [1-{4-[4-(1-methylethoxy)-6-(8-oxa-3-azabicyclo[3.2.1]oct-3-yl)pyrimidin-2-yl]phenyl}-3-[4-(4-methylpiperazin-1-yl)phenyl]urea]: the IC50 with LNCap (LNCaP, 72 h) was found to be 30 nM; against mTOR, 3.32 nM; with MDA468 (72 h), 105 nM; on PI3K-alpha it was 518 nM.

On to `CN1CCN(Cc2ccc(NC(=O)Nc3ccc(-c4nc(N5C6CCC5COC6)cc(N5C6CCC5COC6)n4)cc3)cc2)CC1` [1-[4-(4,6-di-3-oxa-8-azabicyclo[3.2.1]oct-8-ylpyrimidin-2-yl)phenyl]-3-{4-[(4-methylpiperazin-1-yl)methyl]phenyl}urea], for which the IC50 was no more than 0.8 nM with LNCap (LNCaP, 72 h); 2.25 nM against mTOR; 4 nM with MDA468 (72 h); 1950 nM on PI3K-alpha.

On to `O=C(Nc1ccc(-c2cc(N3CC4CCC(C3)O4)nc(-c3ccc(NC(=O)OCCO)cc3)n2)cc1)OCCO` [bis(2-hydroxyethyl) {[6-(8-oxa-3-azabicyclo[3.2.1]oct-3-yl)pyrimidine-2,4-diyl]di-4,1-phenylene}biscarbamate], for which the IC50 with LNCap (LNCaP, 72 h) was 240 nM; against mTOR it was 9.4 nM; in the assay on MDA468 (72 h), 1600 nM; on PI3K-alpha it was 5000 nM.
